Results taken from patent EP0226508A1, “Indolo[3,2-c]quinoline derivatives, process for their preparation and their anti-tumour activity” (priority 1985, dated 1987).
Like-named read-outs stand apart in the source and are kept apart here.

What was measured:
[1] = test system: souris consanguines DBA₂ saines; assay: Acute toxicity, single intraperitoneal injection in healthy mice, mortality at day 7; format: in vivo; details: single i.p. injection, 50 mg/kg
leucémie L 1210 = assay: In vivo antitumour activity, L 1210 leukemia test; parameters: species or system souris hybrides CDF₁; details: L 1210, CDF₁ mice; for Nombre de survivants: survivors at J 30
Description: (§1) L'activité antitumorale a été testée in vivo sur différentes tumeurs selon le protocole général suivant:
(§2) Toutes les souris mâles ou femelles sont inoculées par voie intrapéritonéale au jour Jo avec une quantité déterminée de cellules tumorales viables, variable selon la tumeur.
(§3) Elles sont ensuite réparties en différents lots. Chaque lot correspondant aux animaux traités par le produit à tester à une dose déterminée est composé de 10 souris. Dans ce cas, le produit à tester est dissous dans l'eau distillée et il est administré, pendant n jours (J₁-Jn) variables selon le protocole choisi, par voie intrapéritonéale à raison de 0,1 ml par 10 g de poids des souris traitées, les doses du produit administré étant précisées dans les tableaux ci-dessous.
(§4) Le lot "contrôle négatif", correspondant aux animaux qui ne sont pas traités par un produit, comprend 2 √N animaux, N étant égal au nombre total de souris traitées par un produit.
(§5) Enfin, tous les essais sont conduits parallèlement à l'étude d'un lot appelé "contrôle positif" de 10 animaux qui est traité par une molécule active, variable selon le protocole choisi, dans les mêmes conditions que les lots traités par le produit à tester, afin de valider l'essai.
(§6) L'activité antitumorale est évaluée en considé-rant l'augmentation du temps de survie des animaux traités par rapport à celui des animaux du lot "contrôle négatif" selon la formule : [formula]
(§7) Un composé est considéré comme étant actif lorsque la valeur du rapport T/C est égale ou supérieure à 125 % selon le protocole retenu. Il est toxique lorsque cette valeur est égale ou inférieure à 85 %. Le produit est également considéré comme toxique lorsque la variation pondérale, exprimée en grammes et calculée par la formule : Poids moyen du lot mesuré au jour 5 -poids moyen du même lot au jour 1 est égale ou inférieure à - 4 g.
b) Test de la leucémie L 1210 (GERAN et al., Cancer Chemother, 1972, 2, 07-57).
Les essais sont effectués avec des souris hybrides CDF₁ inoculées avec 10⁵ cellules leucémiques de la lignée L 1210. Le composé à tester est administré pendant 5 jours (J₁-J₅).Le contrôle positif du test est le 5-fluorouracile administré dans les mêmes conditions. Le nombre d'animaux survivants est évalué au jour J 30. Un composé est considéré comme étant actif lorsque le rapport T/C est supérieur ou égal à 125 %.

[2] = test system: lignée tumorale leucémie L 1210; assay: In vitro cytotoxic activity on L 1210 leukemia cell culture (inhibition of cell proliferation); format: cell-based; details: L 1210 culture in exponential growth, 37°C, after 48 hours of contact, read-out: ID 50 (the source's name)
Method: 1) In vitro : (PAOLETTI et al., Chem. Biol. Interaction, 1979, 25, 45-58).
L'activité cytotoxique des composés de l'invention a été évaluée par des essais in vitro. Ces essais consistent à ajouter des concentrations croissantes du composé à tester à une culture cellulaire de la lignée tumorale leucémie L 1210 en phase exponentielle de croissance. Les cellules sont incubées à 37°C dans une étuve à CO₂ et comptées toutes les 24 heures. Le calcul de l'ID₅₀ (concentration du produit exprimée en micromole 1⁻¹ qui inhibe la prolifération cellulaire à 50 p. 100) est effectuée après 48 heures de contact. Ainsi déterminées les ID₅₀ des composés de l'invention sont rassemblées dans le tableau ci-après.

mélanome B 16 = assay: In vivo antitumour activity, B 16 melanoma test; parameters: species or system souris hybrides BDF₁; details: for Jour médian de survie / T/C % / Nombre de survivants: B 16 melanoma; for Nombre de survivants: survivors at J 60; for Variation pondérale en g: in vivo, ip
Description: as §1, §2, §3, §4, §5, §6
Le produit est également considéré comme toxique lorsque la variation pondérale, exprimée en grammes et calculée par la formule : Poids moyen du lot mesuré au jour 5 -poids moyen du même lot au jour 1 est égale ou inférieure à - 4 g.
Les essais sont effectués avec des souris hybrides BDF₁ inoculées avec 0,5 ml d'un homogénat de mélanome B 16 réalisé à partir de 1 g de tumeur dans 10 ml de sérum physiologique. Le composé à tester est administré pendant 9 jours (J₁-J₉).Le contrôle positif du test est le Cis-Platine administré dans les mêmes conditions. Le nombre d'animaux survivants est évalué au jour J 60.

leucémie P 388 = assay: animal or person; format: in vivo, souris hybrides CDF 1; details: for Nombre de survivants: survivors at J 40; for Variation pondérale en g: in vivo, ip
Description: as §1, §2, §3, §4, §5, §6, §7
a) Test de la leucémie P 388 (GERAN et al., Cancer Chemother, 1972, 2, 07-57).
Les essais sont effectués avec des souris hybrides CDF 1 inoculées par voie intrapéritonéale avec 10⁶ cellules leucémiques de la lignée P 388. Le composé à tester est administré pendant 5 jours (J1-J5). Le contrôle positif du test est le 5-fluorouracile qui est administré dans les mêmes conditions. Le nombre d'animaux survivants est évalué au jour J 40. Un composé est considéré comme étant actif lorsque le rapport T/C est supérieur à 127 %.

[3] = BDF₁ mice, 2,5 mg/kg i.p. J1-J9
[4] = Mus musculus, P388, ip, P 388, CDF 1 mice, 5 mg/kg i.p. J1-J5, read-out: T/C %
[5] = Mus musculus, P388, ip, P 388, CDF 1 mice, 10 mg/kg i.p. J1-J5, read-out: T/C %
[6] = Mus musculus, P388, ip, P 388, CDF 1 mice, 20 mg/kg i.p. J1-J5, read-out: T/C %
[7] = P 388, CDF 1 mice, 5 mg/kg i.p. J1-J5
[8] = P 388, CDF 1 mice, 10 mg/kg i.p. J1-J5
[9] = P 388, CDF 1 mice, 20 mg/kg i.p. J1-J5
[10] = Mus musculus, P388, ip, P 388, CDF 1 mice, 2,5 mg/kg i.p. J1-J5, read-out: T/C %
[11] = P 388, CDF 1 mice, 2,5 mg/kg i.p. J1-J5

| Compound | mortalité évaluée au septième jour après l'administration [1] | Jour médian de survie (leucémie L 1210; 5 mg/kg i.p. J1-J5) | T/C % (leucémie L 1210; 5 mg/kg i.p. J1-J5) [%] | Nombre de survivants (leucémie L 1210; 5 mg/kg i.p. J1-J5) | Jour médian de survie (leucémie L 1210; 10 mg/kg i.p. J1-J5) | T/C % (leucémie L 1210; 10 mg/kg i.p. J1-J5) [%] | Nombre de survivants (leucémie L 1210; 10 mg/kg i.p. J1-J5) | IC50 ([2]; Mus musculus, L1210) [nM] | response vs control in vivo at 5 mg/kg (leucémie P 388; [4]) [%] | response vs control in vivo at 10 mg/kg (leucémie P 388; [5]) [%] | response vs control in vivo at 20 mg/kg (leucémie P 388; [6]) [%] | Nombre de survivants (leucémie P 388; [7]) | Nombre de survivants (leucémie P 388; [8]) | Nombre de survivants (leucémie P 388; [9]) | Variation pondérale en g (leucémie P 388; 5 mg/kg) | Variation pondérale en g (leucémie P 388; 10 mg/kg) | Variation pondérale en g (leucémie P 388; 20 mg/kg) | response vs control in vivo at 2.5 mg/kg (leucémie P 388; [10]) [%] | Nombre de survivants (leucémie P 388; [11]) | other results |
| --- | --- | --- | --- | --- | --- | --- | --- | --- | --- | --- | --- | --- | --- | --- | --- | --- | --- | --- | --- | --- |
| CCN(CC)CCCNc1nc2ccccc2c2c1c1cc(O)ccc1n2C [Dérivé N°3] | aucune mortalité | 10,6 | 129 | 0 | 11,3 | 138 | 0 | 60 | 155 | 147 | 149 | 0 | 0 | 0 | + 1,0 g | - 0,6 g | - 2,2 g | – | – | Jour médian de survie (mélanome B 16; [3]): 36; T/C % (mélanome B 16; [3]): 138%; Nombre de survivants (mélanome B 16; [3]): 0 |
| CN(C)CCCNc1nc2ccccc2c2[nH]c3ccc(O)cc3c12 [Dérivé N°12, (diméthylamino-3 propylamino)-6 hydroxy-8 11-H indolo [3,2-c]quinoléine] | aucune mortalité | – | – | – | – | – | – | 80 | 155 | 141 | – | 0 | 0 | – | - 1,2 g | - 1,7 g | – | 141 | 0 | response vs control in vivo at 0.625 mg/kg (leucémie P 388; Mus musculus, P388, ip, P 388, CDF 1 mice, 0,625 mg/kg i.p. J1-J5, read-out: T/C %): 129%; response vs control in vivo at 1.25 mg/kg (leucémie P 388; Mus musculus, P388, ip, P 388, CDF 1 mice, 1,25 mg/kg i.p. J1-J5, read-out: T/C %): 130%; Nombre de survivants (leucémie P 388; P 388, CDF 1 mice, 0,625 mg/kg i.p. J1-J5): 0; Nombre de survivants (leucémie P 388; P 388, CDF 1 mice, 1,25 mg/kg i.p. J1-J5): 0 |
| Oc1ccc2[nH]c3c4ccccc4nc(NCCCN4CCOCC4)c3c2c1 [Dérivé N°15, hydroxy-8 (morpholino-3 propylamino)-6 11-H indolo[3,2-c]quinoléine] | aucune mortalité | – | – | – | 10,2 | 129 | 0 | 280 | 130 | – | – | 0 | – | – | - 1,1 g | – | – | 124 | 0 | – |
| Oc1ccc2[nH]c3c4ccccc4nc(NCCCN4CCCCC4)c3c2c1 [Dérivé N°16, hydroxy-8 (pipéridino-3 propylamino)-6 11-H indolo[3,2-c]quinoléine] | aucune mortalité | 10 | 126 | 0 | 10,4 | 131 | 0 | 180 | 133 | 130 | 77 | – | 0 | 0 | - 1,7 g | - 2,5 g | - 4,2 g | 140 | 0 | Jour médian de survie (leucémie L 1210; 20 mg/kg i.p. J1-J5): 10,2; T/C % (leucémie L 1210; 20 mg/kg i.p. J1-J5): 129%; Nombre de survivants (leucémie L 1210; 20 mg/kg i.p. J1-J5): 0 |
| (éthylamino-3 propylamino)-6 hydroxy-8 11-H indolo[3,2-c]quinoléine [Dérivé N°14] | aucune mortalité | – | – | – | – | – | – | – | – | – | – | 0 | – | – | + 1,7 g | – | – | – | 0 | IC50 [2]: 1400 nM; Jour médian de survie (mélanome B 16; BDF₁ mice, 5 mg/kg i.p. J1-J9): 34,25; T/C % (mélanome B 16; BDF₁ mice, 5 mg/kg i.p. J1-J9): 123%; Jour médian de survie (mélanome B 16; BDF₁ mice, 20 mg/kg i.p. J1-J9): 38,75; T/C % (mélanome B 16; BDF₁ mice, 20 mg/kg i.p. J1-J9): 139%; Nombre de survivants (mélanome B 16; BDF₁ mice, 20 mg/kg i.p. J1-J9): 0; Variation pondérale en g (mélanome B 16; 5 mg/kg): - 0,2 g; Variation pondérale en g (mélanome B 16; 20 mg/kg): - 1,3 g; Jour médian de survie (leucémie P 388; [7]): 14,0; T/C % (leucémie P 388; [7]): 127%; Jour médian de survie (leucémie P 388; [11]): 14,0; T/C % (leucémie P 388; [11]): 127% |
